According to US6410584B1, “Method for inhibiting neoplastic cells with indole derivatives” (Cell Pathways, Inc., priority 1998, dated 2002):

melting point [°C]	Structure (SMILES)
168 to 169	CCCCCS(=O)(=O)NC(=O)c1ccc2[nH]c(CCC)c(Cc3ccc(Cl)cc3Cl)c2c1 [Compound 101, 3-(2,4-dichlorobenzyl)-5-(1-pentanesulfonylcarbamoyl)-2-propylindole]
167 to 169	Cc1[nH]c2ccc(C(=O)NS(=O)(=O)CCC(C)C)cc2c1Cc1ccc(Cl)cc1Cl [Compound 98, 3-(2,4-dichlorobenzyl)-2-methyl-5-(3-methyl-1-butanesulfonylcarbamoyl)indole]
201 to 205	Cc1[nH]c2ccc(C(=O)NS(=O)(=O)C(F)(F)F)cc2c1Cc1ccc(Cl)cc1Cl [Compound 113, 3-(2,4-dichlorobenzyl)-2-methyl-5-(trifluoromethanesulfonylcarbamoyl)indole]
215.5 to 216.1	CCCCS(=O)(=O)NC(=O)c1ccc2c(C)c(Cc3ccc(Cl)cc3Cl)[nH]c2c1 [Compound 121, 6-(1-butanesulfonylcarbamoyl)-2-(2,4-dichlorobenzyl)-3-methylindole]
183 to 185	CCCCCCS(=O)(=O)NC(=O)c1ccc2[nH]c(C)c(Cc3ccc(Cl)cc3Cl)c2c1 [Compound 94, 3-(2,4-dichlorobenzyl)-5-(1-hexanesulfonylcarbamoyl)-2-methylindole]
244 to 245	Cc1[nH]c2ccc(C(=O)NS(=O)(=O)c3ccccc3)cc2c1Cc1ccc(Cl)cc1Cl [Compound 93, 5-(benzenesulfonylcarbamoyl)-3-(2,4-dichlorobenzyl)-2-methylindole]
165.5 to 166.2	CCCCS(=O)(=O)NC(=O)c1ccc2[nH]cc(Cc3ccc(Cl)cc3Cl)c2c1 [Compound 48, 5-(1-butanesulfonylcarbamoyl)-3-(2,4-dichlorobenzyl)indole]
175 to 177	CCCCCS(=O)(=O)NC(=O)c1ccc2[nH]c(C)c(Cc3ccccc3Cl)c2c1 [Compound 96, 3-(2-chlorobenzyl)-2-methyl-5-(1-pentanesulfonylcarbamoyl)indole]
249 to 250	CCCCS(=O)(=O)NC(=O)c1ccc2c(Cc3ccc(Cl)cc3Cl)c(C)[nH]c2c1 [Compound 90, 6-(1-butanesulfonylcarbamoyl)-3-(2,4-dichlorobenzyl)-2-methylindole]
180 to 184	CCCCCS(=O)(=O)NC(=O)c1ccc2[nH]c(C)c(Cc3ccc(OCc4ccccc4)cc3)c2c1 [Compound 100, 3-(4-benzyloxybenzyl)-2-methyl-5-(1-pentanesulfonylcarbamoyl)indole]
241 to 243	CCCCS(=O)(=O)NC(=O)c1ccc2[nH]c(C)c(C(=O)c3ccc(Cl)cc3Cl)c2c1 [Compound 97, 5-(1-butanesulfonylcarbamoyl)-3-(2,4-dichlorobenzoyl)-2-methylindole]
189 to 190	CCCCCS(=O)(=O)NC(=O)c1ccc2[nH]c(C)c(Cc3ccc(-c4ccccc4)cc3)c2c1 [Compound 95, 3-(biphenyl-4-ylmethyl)-2-methyl-5-(1-pentanesulfonylcarbamoyl)indole]
161 to 163	CCCS(=O)(=O)NC(=O)c1ccc2[nH]c(C)c(Cc3ccc(Cl)cc3Cl)c2c1 [Compound 91, 3-(2,4-dichlorobenzyl)-2-methyl-5-(1-propanesulfonylcarbamoyl)indole]
